Legend:
Experiment in all cases: relative viability (nuclei count vs DMSO), 5 days (fraction); higher = more cells survive
[1] = compound: CN(C)CC1=CC(=CC=C1)N=C(C2=CC=CC=C2)C3=C(NC4=C3C=CC(=C4)C(=O)N(C)C)O + COc1cc2c(Oc3ccc(NC(=O)C4(C(=O)Nc5ccc(F)cc5)CC4)cc3F)ccnc2cc1OCCCN1CCOCC1 [Foretinib] (partner 0.25 µM)
Procedure, shortened: (§1)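 One day after seeding in 1536-well plates, lung cancer cell lines were dosed by pin tool. Dosing was either single-drug or a fixed anchor-drug dose plus five library-drug doses (not always all listed) in √10 steps. After 5 days, nuclei were stained in one fix-and-stain step and counted on 4× images, and relative viability is the nuclei count of treated wells over that of vehicle wells, given as the median of duplicate plates.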

[2] = compound: CN(C)CC1=CC(=CC=C1)N=C(C2=CC=CC=C2)C3=C(NC4=C3C=CC(=C4)C(=O)N(C)C)O + CS(=O)(=O)N1CCN(Cc2cc3nc(-c4cccc5[nH]ncc45)nc(N4CCOCC4)c3s2)CC1 [Pictilisib] (partner 1 µM)
Procedure, shortened: as §1

[3] = compound: CN(C)CC1=CC(=CC=C1)N=C(C2=CC=CC=C2)C3=C(NC4=C3C=CC(=C4)C(=O)N(C)C)O + O=C(CCCCCCC(=O)Nc1ccccc1)NO [Vorinostat] (partner 1 µM)
Procedure, shortened: as §1

[4] = compound: CN(C)CC1=CC(=CC=C1)N=C(C2=CC=CC=C2)C3=C(NC4=C3C=CC(=C4)C(=O)N(C)C)O + NC(=O)Nc1cc(-c2cccc(F)c2)sc1C(=O)N[C@H]1CCCNC1 [AZD7762] (partner 0.2 µM)
Procedure, shortened: as §1

Row | Cell Line | relative viability ([1]; first compound 0.08 µM) | relative viability ([1]; first compound 0.253 µM) | relative viability ([1]; first compound 0.8 µM) | relative viability ([1]; first compound 2.53 µM) | relative viability ([1]; first compound 8 µM) | relative viability ([2]; first compound 0.08 µM) | relative viability ([2]; first compound 0.253 µM) | relative viability ([2]; first compound 0.8 µM) | relative viability ([2]; first compound 2.53 µM) | relative viability ([2]; first compound 8 µM) | relative viability ([3]; first compound 0.08 µM) | relative viability ([3]; first compound 0.253 µM) | relative viability ([3]; first compound 0.8 µM) | relative viability ([3]; first compound 2.53 µM) | relative viability ([3]; first compound 8 µM) | relative viability ([4]; first compound 0.08 µM) | relative viability ([4]; first compound 0.253 µM) | relative viability ([4]; first compound 0.8 µM) | relative viability ([4]; first compound 2.53 µM) | relative viability ([4]; first compound 8 µM)
1 | NCI-H520 | 0.799 | 0.789 | 0.695 | 0.712 | 0.649 | 0.271 | 0.294 | 0.316 | 0.215 | 0.221 | 0.715 | 0.644 | 0.831 | 0.621 | 0.536 |  |  |  |  | 
2 | NCI-H1793 | 0.745 | 0.66 |  | 0.734 | 0.621 | 0.355 | 0.266 | 0.32 | 0.35 | 0.345 | 0.826 | 0.812 | 0.563 | 0.821 | 0.859 | 0.527 | 0.386 | 0.407 | 0.346 | 0.436
3 | NCI-H2405 | 1.04 | 1.08 | 1.01 | 0.992 | 1.04 | 0.457 | 0.357 | 0.441 | 0.385 | 0.382 | 1.1 | 1.01 | 1.06 | 0.987 | 1.01 | 0.715 | 0.72 | 0.713 | 0.659 | 0.681
4 | HCC-15 | 1.01 | 1.02 | 1.1 | 0.99 | 1 | 0.739 | 0.768 | 0.877 | 0.819 | 0.774 | 0.875 | 0.821 | 0.787 | 0.868 | 0.89 | 1.44 | 1.2 | 1.24 | 1.4 | 1.31
5 | NCI-H1975 | 0.863 | 0.984 | 0.888 | 0.88 | 0.78 | 0.306 | 0.324 | 0.245 | 0.257 | 0.275 | 0.709 | 0.669 | 0.705 | 0.661 | 0.604 | 0.756 | 0.761 | 0.68 | 0.692 | 0.707
6 | NCI-H1755 | 0.941 | 0.903 | 0.989 | 0.874 | 0.918 | 0.46 | 0.433 | 0.349 | 0.418 | 0.381 | 0.739 | 0.768 | 0.717 | 0.715 | 0.766 | 0.374 | 0.383 | 0.481 | 0.452 | 0.411
7 | NCI-H2342 | 1.08 | 1.06 | 0.979 | 1.17 | 1.05 |  |  |  |  |  | 0.728 | 0.928 | 0.773 | 0.87 | 0.913 | 0.428 | 0.582 | 0.471 | 0.461 | 0.472
8 | COR-L 105 | 1.1 | 1.05 | 0.967 | 0.926 | 0.991 | 0.356 | 0.381 | 0.39 | 0.377 | 0.332 | 0.782 | 0.81 | 0.753 | 1.1 | 0.66 |  |  |  |  | 
9 | PC-14 | 0.9 | 0.903 | 1.02 | 0.934 | 0.951 | 0.698 | 0.608 | 0.63 | 0.591 | 0.662 | 0.576 | 0.675 | 0.833 | 0.687 | 0.592 | 0.392 | 0.395 | 0.377 | 0.387 | 0.411
